Experimental findings from patent US5547972A, “Therapeutic agents useful for treating inflammatory diseases” (The Boots Company PLC, priority 1991, dated 1996) are described below.

Molecules are shown by their SMILES. pIC50: −log10 of the molar value. Structures can show the parent of a compound that is named as a salt. Where two headings read alike, the source gives them in different places.

For orientation: pIC50 means the negative decadic logarithm of the IC50, by convention in mol/L. The term inhibition in vivo denotes the relative decrease from the control value, in per cent. A lower inhibition in vivo goes with little suppression.

Assay [1] relates to Zymosan Stimulated Macrophaqes. The assay is described as follows: Test A: Inhibition of Arachidonic Acid Release from Zymosan Stimulated Macrophages. The note with it: read-out: Test A IC50. The format is cell-based, mouse (female MF1). The procedure: Inhibition of Arachidonic Acid Release from Zymosan Stimulated Macrophaqes
Female MF1 mice (weighing 20 to 25 g) were killed using a rising concentration of CO2. The mice were laid on their backs and the abdomens wiped with 70% alcohol. The skin was pulled back, exposing the peritoneal wall. Medium A (5 ml) (see below) was injected into the peritoneal cavity of each mouse followed by approximately 1 ml of air using a 20 ml syringe and a 21 G×40 mm needle in order to form a suspension of macrophage cells. The medium and cells were then removed using a 19 G×40 mm needle. The resulting suspension was returned to a sterile beaker kept on ice. The extracts from all the mice were pooled and this pooled cell suspension was counted using a Coulter counter and adjusted to a final cell count of 1-1.3×10^6 cells/ml prior to labelling with [^3 H]-arachidonic acid. Typically five mice provided sufficient cells for each multiwell plate.
Sufficient [^3 H]-arachidonic acid in ethanol to give a final concentration of 1.6 μCi/ml (equivalent to 40 μCi/plate) was blown to dryness under nitrogen. The arachidonic acid was then resuspended in 1 or 2 ml of the cell suspension which was then mixed with the remainder of the cell suspension in a centrifuge bottle. The labelled cell suspension was then plated out into sterile plastic 96 flat-bottomed well plates (250 μl per well) and incubated overnight at 37° C. in a moist atmosphere of 5% CO2, 95% air.
The following day, non-adherent cells were removed by washing 3 times with sterile phosphate buffered saline (PBS). The adherent peritoneal macrophages were then cultured for a further 24 hours in the presence or absence of drugs, in medium B (see below) at 37° in a 5% CO2 atmosphere in order to measure the effects of drugs on the spontaneous release of arachidonic acid in the absence of stimulus. After this incubation, supernatants were removed to give media 1 and stored in sealed multi-well plates at 4° C. prior to scintillation counting. Drugs which potentiated spontaneous release of arachidonic acid (125% of controls) were deemed to be toxic at the concentration at which this phenomenon occurred. The supernatants were replaced by fresh medium C containing fresh drug and a stimulus. Three drugs were tested at six concentrations (100, 50, 20, 10, 5 and 1 μM) in replicates of four on each plate. The other wells contained controls consisting of a positive control (e.g. dexamethasone), medium (B) only and medium C only.
Incubation was then continued for a further 5 hours, whereupon the supernatants were collected to give media 2 and the adherent cells washed with PBS. The cells were then lysed with 100 μl of 0.1% TRITON® X100 in a 0.1% solution of bovine serum albumin in 0.9% saline and mechanically disrupted to give cell lysates. These supernatants (media 2) and cell lysates (Cells) were also stored in sealed multi-well plates at 4° C. prior to scintillation counting. 200 μl aliquots of media, or 100 μl aliquots of cells were counted using 2 ml of OPTIPHASE "HIGH SAFE" (Trademark of LKB) as scintillant.
The percentage of arachidonic acid released was calculated using the mean values for each group of 4 wells in the following equation. [formula] cpm=courts per minute
The value for the arachidonic acid release in the absence of stimulus (spontaneous, cpm of media 2) from cells which had been exposed to neither stimulus nor drug was subtracted from all equivalent values (cpm media 2, stimulated with or without drug) to give the net stimulated release. The percentage inhibition of arachidonic acid release caused by a drug may then be calculated using the following equation. [formula]
Compounds of formula I were tested at six concentrations (100, 50, 20, 10, 5 and 1 μM) and IC50 values calculated. Compounds with IC50 values<100 μM are considered to be active. Advantageous compounds have an IC50 value <50 μM.
Medium A (for peritoneal lavage) […]

Assay [2] deals with Carrageenan-induced rat paw oedema. The assay is described as follows: Test B: Carrageenan-induced rat paw oedema test. The note with it: inhibition of paw oedema, 1 h before carrageenan, 3 h after injection; for inhibition in vivo at 100 mg/kg: Rattus norvegicus, po, 3 h; for Test B % inhibition at 100 mg/kg: oral. Type of assay: in vivo, rat (female). As to the method: Carrageenan-induced rat paw oedema test
Female rats, weight range 125-150 g were fasted overnight. One of the hind legs of each animal was marked with a line at the connection between the cuboid/navicular and calcaneus/talus bones. Groups of six rats were orally dosed at 10 ml/kg, in random order, with a given dose of the test compound given as a solution or suspension in 10% (w/v) aqueous acacia solution.
One hour after dosing, 0.1 ml of 1% (w/v) sterile carrageenan λ in normal saline was injected deeply into the plantar surface of the marked hind foot of each rat. The volume of the foot (up to the marked line) was measured immediately after injection using duplicate water displacement readings. Three hours after injection the foot volume was measured again and the percentage increase in foot volume relative to the initial reading was calculated.
The increase in foot volume (i.e. the degree of oedema) in drug treated animals when compared with that in the drug untreated control gave the degree of inhibition of paw oedema by the drug.
Compounds were considered to be active in this test if they produced a 20% or greater inhibition of paw oedema in at least two out of three tests after oral dosing at 100 mg/kg. Statistical significance was assessed using the Student't test for single dose studies and Dunnett's test for multiple dose studies. More advantageous compounds were active in both Tests A and B,

Setting [3] is: Mus musculus, Macrophage, 5 h, inhibition of arachidonic acid release, six concentrations (100, 50, 20, 10, 5 and 1 μM), 5 h with zymosan.
Where [4] appears, read: inhibition of arachidonic acid release, six concentrations (100, 50, 20, 10, 5 and 1 μM), 5 h with zymosan.

Take `CC(NCCCn1ccnc1)c1ccc(C(F)(F)F)cc1` (stereo not drawn) [Example 11, 3-(Imidazol-1-yl)-N-[1-(4-trifluoromethylphenyl)ethyl]propylamine]: in assay [1] (setting [3]), the pIC50 was 4.35. For the same compound, the inhibition in vivo at 100 mg/kg in assay [2] is 34%.
With `Cc1ccc(C(C)(C)NCCCn2ccnc2C)cc1` [Example 73, 3-(2-Methylimidazol-1-yl)-N-[1-methyl-1-(p-tolyl)ethyl]propylamine dihydrochloride], in assay [1] (setting [3]), the negative-log IC50 (pIC50) was 4.31. In assay [2], this compound came in with an inhibition in vivo at 100 mg/kg of 8%.
In the case of `CC(C)(NCCCCCn1ccnc1)c1ccc(Cl)cc1` [Example 62, N-[1-(4-chlorophenyl)-1-methylethyl]-5-(imidazol-1-yl)pentylamine], in assay [1] (setting [3]), the pIC50 is 4.68. For the same compound, the inhibition in vivo at 100 mg/kg in assay [2] was 42%.
On the same counts, the results for `Cc1nccn1CCCNC(C)(C)c1ccc(Cl)cc1` [Example 60, N-[1-(4-chlorophenyl)-1-methylethyl]-3-(2-methylimidazol-1-yl)propylamine] are 5.05 and 59%.
The corresponding values for `CC(NCCCCCn1ccnc1)c1ccc(Cl)cc1` (stereo not drawn) [Example 55, N-[1-(4-Chlorophenyl)ethyl]-5-(imidazol-1-yl)pentylamine dioxalate] are 4.49 and 45%.
Regarding `CC(C)(NCCCn1ccnc1)c1ccc(Cl)cc1.Cl.Cl` [68 (2), N-[1-(4-chlorophenyl)-1-methylethyl]-3-(imidazol-1-yl)propylamine dihydrochloride], in assay [1] (inhibition of arachidonic acid release, six concentrations (100, 50, 20, 10, 5 and 1 μM), 5 h with zymosan, dihydrochloride), the negative-log IC50 (pIC50) is 4.37. The “Test B % inhibition at 100 mg/kg” value in assay [2] came out at 70%.
Consider `CC(NCCCn1ccnc1)c1ccc(Cl)cc1` (stereo not drawn) [Example 1, N-[1-(4-chlorophenyl)ethyl]-3-(imidazol-1-yl)propylamine dihydrochloride], for which the negative-log IC50 (pIC50) in assay [1] (setting [3]) is 4.26. The compound also showed an inhibition in vivo at 100 mg/kg in assay [2] of 59%.
The corresponding values for `CCC(CC)(NCCCn1ccnc1)c1ccccc1` [Example 80, N-(1-Ethyl-1-phenylpropyl)-3-(imidazol-1-yl)propylamine] are 4.27 and 52%.
As for `c1ccc(C(NCCCn2ccnc2)c2ccccc2)cc1` [Example 34, N-benzhydryl-3-(imidazol-1-yl)propylamine dihydrochloride], the pIC50 in assay [1] (setting [3]) is 4.49. Besides, the inhibition in vivo at 100 mg/kg in assay [2] was 47%.
On the same counts, the results for `Cc1ncn(CCCNC(C)c2ccc(Cl)cc2)c1C` (stereo not drawn) [Example 24, N-[1-(4-Chlorophenyl)ethyl]-3-(4,5-dimethylimidazol-1-yl)propylamine dihydrochloride] are 4.96 and 34%.
`CC(NCCCn1ccnc1)c1ccc(Cl)cc1` (single isomer, unassigned; (+)) [Example 93, (+)N-[1-(4-chlorophenyl)ethyl]-3-(imidazol-1-yl)-propylamine (+) ditartrate]: the negative-log IC50 (pIC50) in assay [1] (setting [4]) is 4.80. The “Test B % inhibition at 100 mg/kg” value in assay [2] is listed as 57%.
In the case of `CC(NCCCn1ccnc1)c1ccc(OCc2ccccc2)cc1` (stereo not drawn) [Example 5, N-[1-(4-Benzyloxyphenyl)ethyl]-3-(imidazol-1-yl)propylamine], the pIC50 in assay [1] (setting [3]) was 4.92. In addition, in assay [2], at 100 mg/kg the inhibition in vivo was 5%.
As to `Cc1ccc(C(C)(C)NCCCn2ccnc2)cc1` [Example 75, 3-(Imidazol-1-yl)-N-[1-methyl-1-(p-tolyl)ethyl]propylamine dihydrochloride], the negative logarithm of the IC50 (pIC50) in assay [1] (setting [3]) was 4.33. The compound further registered an inhibition in vivo at 100 mg/kg in assay [2] of 42%.
On to `Clc1ccc(CNCCCn2ccnc2)cc1Cl` [Example 35, N-(3,4-dichlorobenzyl)-3-(imidazol-1-yl)propylamine], for which the pIC50 in assay [1] (setting [3]) was 4.68. The compound further gave an inhibition in vivo at 100 mg/kg in assay [2] of 47%.
The corresponding values for `CC(NCCCn1ccnc1)c1ccc(Cl)c(Cl)c1Cl` (stereo not drawn) [Example 13, N-[1-(2,3,4-Trichlorophenyl)ethyl]-3-(imidazol-1-yl)propylamine dihydrochloride] are 4.89 and 70%.
For `CC(NCCCn1ccnc1)c1ccc(Oc2ccccc2)cc1` (stereo not drawn) [Example 16, 3-(Imidazol-1-yl)-N-[1-(4-phenoxyphenyl)ethyl]propylamine], the negative-log IC50 (pIC50) in assay [1] (Mus musculus, Macrophage, 5 h) is 5.10. In assay [2], this compound came in with an inhibition in vivo at 100 mg/kg of 9%.
On to `Cc1cn(CCCNC(C)c2ccc(Cl)cc2)c(Cc2ccccc2)n1` (stereo not drawn) [Example 32, 3-[2-benzyl-4-methylimidazol-1-yl]-N-[1-(4-chlorophenyl)ethyl]propylamine], for which the negative logarithm of the IC50 (pIC50) in assay [1] (setting [3]) is 5.22. Besides, in assay [2], the inhibition in vivo at 100 mg/kg turned out to be 35%.
On the same counts, the results for `CC(NCCCn1ccnc1)c1ccc(Cl)c(F)c1` (stereo not drawn) [Example 10, N-[1-(4-Chloro-3-fluorophenyl)ethyl]-3-(imidazol-1-yl)propylamine dihydrochloride] are 4.40 and 49%.
On the same counts, the results for `CCC(CC)(NCCCn1ccnc1)c1ccc(Cl)cc1` [Example 76, 1-(4-Chlorophenyl)-1-ethyl-3'-(imidazol-1-yl)dipropylamine dihydrochloride] are 4.82 and 31%.
For `CCc1nccn1CCCNC(C)c1ccc(Cl)cc1` (stereo not drawn) [Example 53, N-[1-(4-Chlorophenyl)ethyl]-3-(2-ethylimidazol-1-yl)propylamine dihydrochloride], the negative logarithm of the IC50 (pIC50) in assay [1] (setting [3]) is 4.51. Besides, 100 mg/kg produced 27% inhibition in vivo in assay [2].
Turning to `CC(C)(NCCCn1cnc(CO)c1)c1ccc(-c2ccccc2)cc1` [Example 85, 1-{3-[1-(4-biphenylyl)-1-methylethylamino]propyl}imidazol-4-yl-methanol], the negative logarithm of the IC50 (pIC50) in assay [1] (setting [3]) is 4.35. Testing at 100 mg/kg in assay [2] gave an inhibition in vivo of 0%.
As to `Cc1cn(CCCNCc2ccc(Cl)cc2)c(Cc2ccccc2)n1` [Example 47], in assay [1] (setting [4]), the pIC50 was 5.15. The “Test B % inhibition at 100 mg/kg” value in assay [2] came out at 35%.
On to `CC(C)(NCCCn1ccnc1)c1ccc(Cl)cc1` [Example 59, N-[1-(4-chlorophenyl)-1-methylethyl]-3-(imidazol-1-yl)propylamine], for which the pIC50 was 4.46 in assay [1] (inhibition of arachidonic acid release, six concentrations (100, 50, 20, 10, 5 and 1 μM), 5 h with zymosan, listed as 68 (1)); 4.46 in assay [1] (setting [4]). In assay [2], this compound showed an inhibition in vivo at 100 mg/kg of 65%.
`Cc1nccn1CCCNC(C)c1ccc(Cl)cc1` (stereo not drawn) [Example 52, N-[1-(4-chlorophenyl)ethyl]-3-(2-methylimidazol-1-yl)propylamine]: the “Test B % inhibition at 100 mg/kg” value in assay [2] was found to be 27%.
